Laboratory results from patent publication KR20060104555A, “사이클로펜타디온 유도체를 포함하는 항암 조성물” (한국생명공학연구원, priority 2005, dated 2006).
Values after ≈ are worked out from the molar mass of the structure shown.

Assays:
Solubility = assay type: physicochemical
[1] = test system: lung cancer cells NCI-H23 (폐암세포 NCI-H23); assay: WST-1 growth inhibition, NCI-H23; assay type: cell-based; details: Homo sapiens, NCI-H23, 48 h
[2] = test system: lung cancer cells A549 (폐암세포 A549); assay: WST-1 growth inhibition, A549; assay type: cell-based; details: Homo sapiens, A549, 48 h
[3] = test system: breast cancer cells MDA-MB-231 (유방암세포 MDA-MB-231); assay: WST-1 growth inhibition, MDA-MB-231; assay type: cell-based; details: Homo sapiens, MDA-MB-231, 48 h
[4] = test system: colorectal cancer cells SW620 (대장암세포 SW620); assay: WST-1 growth inhibition, SW620; assay type: cell-based; details: Homo sapiens, SW-620, SW620, 48 h
[5] = test system: colorectal cancer cells HCT116 (대장암세포 HCT116); assay: WST-1 growth inhibition, HCT116; assay type: cell-based; details: Homo sapiens, HCT-116, HCT116, 48 h
HEK293 (신장암세포 HEK293) = assay: WST-1 growth inhibition, HEK293; assay type: cell-based; details: Homo sapiens, HEK293, 48 h
[6] = test system: colorectal cancer cells HCA-7 (대장암세포 HCA-7); assay: WST-1 growth inhibition, HCA-7; assay type: cell-based; details: Homo sapiens, HCA-7, 48 h
[7] = molecular target: T1, farnesyl transferase (파네실 전달효소) (Rattus norvegicus, UniProt Q02293+Q04631); assay: Farnesyl transferase inhibition, SPA with 3H-FPP and biotin-lamin B peptide; assay type: biochemical, rat (Sprague Dawley); details: 50% inhibitory concentration; room temperature, 30 min
T1 construct: Q 세파로즈 고속 칼럼(Q Sepharose Fast Flow column)을 이용하여 부분 정제한 것을 사용하였다; from tissue; host or cells: rat (Sprague Dawley, male) brain homogenate, partially purified on Q Sepharose Fast Flow

[8] = test system: prostate cancer cells DU145 (전립선암세포 DU145); assay: WST-1 growth inhibition, DU145; assay type: cell-based; details: Homo sapiens, DU-145, DU145, 48 h

Row | solubility (Solubility; Alcohols, DMSO) | solubility (Solubility; Hexane, H2O) | GI50 [1] | GI50 [2] | GI50 [3] | GI50 [4] | GI50 [5] | GI50 [6] | IC50 [7] | GI50 [8] | Compound | GI50 (HEK293 (신장암세포 HEK293))
1 | 가용성 | 불용성 | 1.1 µg/mL (≈ 3.66 µM) | 3.2 µg/mL (≈ 10.7 µM) | 3.8 µg/mL (≈ 12.7 µM) | 3.5 µg/mL (≈ 11.7 µM) | 0.45 µg/mL (≈ 1.5 µM) | 0.52 µg/mL (≈ 1.73 µM) | 43.3 µM |  | COC(/C=C/c1ccccc1)=C1C(=O)C(OC)=C(OC)C1=O [Methyllinderone, methyllinderone] | 3 µg/mL (≈ 9.99 µM)
2 | 가용성 | 불용성 |  |  |  |  |  |  | 33.3 µM |  | COC1=C(OC)C(=O)C(=C(O)/C=C/c2ccccc2)C1=O [Linderone, linderone] | 
3 | 가용성 | 불용성 | 1 µg/mL (≈ 3.7 µM) | 15 µg/mL (≈ 55.5 µM) | 3.5 µg/mL (≈ 12.9 µM) | 2 µg/mL (≈ 7.4 µM) | 0.26 µg/mL (≈ 0.962 µM) | 0.39 µg/mL (≈ 1.44 µM) | 40.7 µM | 1.8 µg/mL (≈ 6.66 µM) | COC1=CC(=O)C(=C(/C=C/c2ccccc2)OC)C1=O [Methyllucidone, methyllucidone] | 4.8 µg/mL (≈ 17.8 µM)
4 | 가용성 | 불용성 |  |  |  |  |  |  | 125 µM |  | COC1=CC(=O)C(=C(O)/C=C/c2ccccc2)C1=O [Lucidone, lucidone] | 
